Source: US7041698B2, “Hepatitis C virus inhibitors” (Bristol-Myers Squibb Company, priority 2002, dated 2006)

Legend:
[1] = tested on: HCV replicon in Huh7 cells; experiment: HCV replicon cell-based assay; parameters: species or system HCV strain 1B; conditions: Hepatitis C virus, Huh-7, 96 h, HCV replicon, 4 days, read-out: EC50 range
Method in brief: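 Huh7 cells carrying a genotype 1b subgenomic replicon (NS3-NS5B, neo) treated 4 days at 37° C with compound (0.5% DMSO final). NS3 protease activity read in lysates with 10 μM FRET peptide (340/490 nm, kinetic), giving EC50. Confirmed by Taqman qRT-PCR of HCV RNA and a Renilla luciferase replicon.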

[2] = target: T1, HCV NS3/4A protease complex (UniProt P27958, C1454S/C1711G, species not given); experiment: Recombinant HCV NS3/4A protease complex FRET peptide assay (strain not stated); assay type: biochemical; conditions: HCV NS3/4A protease enzyme assay, read-out: IC50 range
T1 construct: fused on or other part: Three-lysine solubilising tail at the C-terminus of NS4A

Row | SMILES | EC50 [1] | IC50 [2]
1 | C=CC1C[C@]1(NC(=O)[C@@H]1C[C@@H](OC(=O)Nc2cc(C)ccc2-c2nccs2)CN1C(=O)[C@@H](NC(=O)OC(C)(C)C)C(C)(C)C)C(=O)NS(=O)(=O)C1CC1 (stereo partly drawn) [Compound 94, BocNH-P3(t-BuGly)-P2(Hyp(O—CO(NH—(5-Methyl-2-thiazol-2-yl-phenyl))))-P1(1R,2S VinylAcca)—CONHSO2Cyclopropane] | < 100 nM | < 100 nM
2 | C=CC1C[C@]1(NC(=O)[C@@H]1C[C@@H](OC(=O)Nc2cc(OC)ccc2-n2cccn2)CN1C(=O)[C@@H](NC(=O)OC(C)(C)C)C(C)(C)C)C(=O)NS(=O)(=O)C1CC1 (stereo partly drawn) [Compound 95, BocNH-P3(t-BuGly)-P2(Hyp(O—CO(NH—(5-Methoxy-2-pyrazol-1-yl-phenyl))))-P1(1R,2S VinylAcca)—CONHSO2Cyclopropane] | 100 to 1000 nM | < 100 nM
3 | C=CC1C[C@]1(NC(=O)[C@@H]1C[C@@H](OC(=O)Nc2cc(C)ccc2-n2cccn2)CN1C(=O)[C@@H](NC(=O)OC(C)(C)C)C(C)(C)C)C(=O)NS(=O)(=O)C1CC1 (stereo partly drawn) [Compound 96, BocNH-P3(t-BuGly)-P2(Hyp(O—CO(NH—(5-Methyl-2-pyrazol-1-yl-phenyl))))-P1(1R,2S VinylAcca)—CONHSO2Cyclopropane] | < 100 nM | < 100 nM
4 | C=CC1C[C@]1(NC(=O)[C@@H]1C[C@@H](OC(=O)Nc2cc(C)ccc2-n2nccn2)CN1C(=O)[C@@H](NC(=O)OC(C)(C)C)C(C)(C)C)C(=O)NS(=O)(=O)C1CC1 (stereo partly drawn) [Compound 97, BocNH-P3(t-BuGly)-P2(Hyp(O—CO(NH—(5-Methyl-2-[1,2,3]triazol-2-yl-phenyl))))-P1(1R,2S VinylAcca)—CONHSO2Cyclopropane] | < 100 nM | < 100 nM
5 | C=CC1C[C@]1(NC(=O)[C@@H]1C[C@@H](OC(=O)Nc2cc(C#N)ccc2-n2cccn2)CN1C(=O)[C@@H](NC(=O)OC(C)(C)C)C(C)(C)C)C(=O)NS(=O)(=O)C1CC1 (stereo partly drawn) [Compound 98, BocNH-P3(t-BuGly)-P2(Hyp(O—CO(NH—(5-Cyano-2-pyrazol-1-yl-phenyl))))-P1(1R,2S VinylAcca)—CONHSO2Cyclopropane] | < 100 nM | < 100 nM
6 | C=CC1C[C@]1(NC(=O)[C@@H]1C[C@@H](OC(=O)Nc2cc(F)ccc2-n2cccn2)CN1C(=O)[C@@H](NC(=O)OC(C)(C)C)C(C)(C)C)C(=O)NS(=O)(=O)C1CC1 (stereo partly drawn) [Compound 99, BocNH-P3(t-BuGly)-P2(Hyp(O—CO(NH—(5-Fluoro-2-pyrazol-1-yl-phenyl))))-P1(1R,2S VinylAcca)—CONHSO2Cyclopropane] | < 100 nM | < 100 nM
7 | C=C[C@@H]1C[C@]1(NC(=O)[C@@H]1C[C@@H](OC(=O)Nc2cc(C(F)(F)F)ccc2-n2cccn2)CN1C(=O)[C@@H](NC(=O)OC(C)(C)C)C(C)(C)C)C(=O)NS(=O)(=O)C1CC1 [Compound 100, BocNH-P3(t-BuGly)-P2(Hyp(O—CO(NH—(5-trifluoromethyl-2-pyrazol-1-yl-phenyl))))-P1(1R,2S VinylAcca)—CONHSO2Cyclopropane] | < 100 nM | < 100 nM
8 | C=C[C@@H]1C[C@]1(NC(=O)[C@@H]1C[C@@H](OC(=O)N2CCc3ccccc3C2)CN1C(=O)[C@@H](NCC1CC1)C(C)(C)C)C(=O)NS(=O)(=O)C1CC1 [Compound 101] | 1000 to 10000 nM | < 100 nM
9 | C=C[C@@H]1C[C@]1(NC(=O)[C@@H]1C[C@@H](OC(=O)Nc2ccccc2C(=O)OCC)CN1C(=O)[C@@H](NC(=O)OC)C(C)(C)C)C(=O)NS(=O)(=O)C1CC1 [Compound 110] | 100 to 1000 nM | < 100 nM
10 | C=C[C@@H]1C[C@]1(NC(=O)[C@@H]1C[C@@H](OC(=O)Nc2ccccc2C(=O)OCC)CN1C(=O)[C@@H](NC(=O)OCC)C(C)(C)C)C(=O)NS(=O)(=O)C1CC1 [Compound 111] | 100 to 1000 nM | < 100 nM
